Marks after values point to notes of the source that are not given here.

These results are taken from patent publication US9327145B2, “Cosmetic compositions comprising manikara multinervis and extracts thereof” (Cognis IP Management GmbH, priority 2009, dated 2016).

For test [1], the system named is collagen type I. In words: Anti-glycation: non enzymatic glycation of collagen type I incubated with glucose (Schiff's bases fluorescence). The settings on record: 3 weeks at 45° C., mean +/- SEM. The format is biochemical. On the procedure:
In order to evaluate the potential of Manilkara multinervis extract to reduce the rate of “non enzymatic” glycation of proteins such as skin collagen, the extract was tested in comparison to aminoguanidine as a positive reference. The “non-enzymatic” glycation results from the reaction of proteins with reducing sugars such as glucose and […]. These sugars react with the free amino groups present in the proteins to form the so called “Schiff's bases”, ultimately resulting in so-called “advanced glycosylation endproducts”. In human skin, the process of “non enzymatic” glycation causes in time a decrease of strength and an atrophy of dermis which are characteristic of skin aging.
The extracts were tested in vitro by incubating collagen type I in solution with glucose during 3 weeks at 45° C. Then the level of “non enzymatic” glycation was determined by measuring the rate of “Schiff's bases” through the record of fluorescence at 430 nm (excitation at 350 nm) of the supernatant solution recovered after centrifugation of the solutions during 15 minutes at 3500 rpm (revolution per minute). The rates of “non enzymatic” glycation were calculated as % referring to the control with glucose. The assays were repeated up to 6 times and the results were expressed in percentage referring to the control with glucose then presented as a mean+/− the SEM (standard error of mean) and statistically evaluated by the student t test. All % values given are weight-%.

Test [2] deals with human dermal fibroblasts. Put plainly: Pro-collagen (type I) effect: released type I collagen (ELISA) and cellular proteins (Bradford). The format is cell-based. The settings on record: 5 μg/ml; 3 days; percentage referring to the control medium; mean +/- SEM. On the procedure: Manilkara multinervis extract according to example 1 was incubated on human dermal fibroblasts cultured in vitro and the release of collagen type I was measured in cell culture medium through an ELISA method. It was tested in comparison to the positive reference vitamin C (ascorbic acid). The human dermal fibroblasts were cultured within growth medium enriched with Fetal Calf Serum (FCS) and incubated for 1 day at 37° C. […] Thereafter, the cell number was measured by quantification of cellular proteins (Bradford's method) while the level of collagen synthesis was determined by quantification of collagen peptides in cell culture medium (ELISA method). The results were calculated through a reference range of proteins or collagen and then expressed in percentage referring to the control medium and presented as a mean+/−SEM (Standard Error of Mean) from 4 assays in triplicate.

In test [3] the test system is human dermal fibroblasts. In words: Tropoelastin synthesis by immunocytochemistry (ICC). The settings on record: 10 ng/ml. The format is cell-based. As to the method:
Manilkara multinervis extract according to example 1 was incubated on human dermal fibroblasts cultured in vitro and the synthesis of tropoelastin was measured in cell culture medium through an ICC method. It was tested in comparison to the positive reference TGF-β1 (Transforming Growth Factor-β1).
The human dermal fibroblasts were cultured within growth medium enriched with Fetal Calf Serum (FCS) and incubated for 3 days at 37° C. Then the growth medium was exchanged for a standard medium containing FCS at 1% and the Manilkara multinervis extract according to example 1 and incubated several days at 37° C. Thereafter, the tropoelastin synthesis was measured by immunocytochemistry (ICC) technique. The results were expressed in percentage of staining occupation and presented for 3 assays as a mean+/−SEM (Standard Error of Mean) of 6 measurements.

Test [4] has as its system human dermal fibroblasts. In words: Fibulin-5 synthesis by immunocytochemistry (ICC). The format is cell-based. The settings on record: 10 ng/ml, mean only. On the procedure: Manilkara multinervis extract according to example 1 was incubated on human dermal fibroblasts cultured in vitro and the synthesis of fibulin-5 was measured in cell culture medium through an ICC method. It was tested in comparison to the positive reference TGF-β1 (Transforming Growth Factor-β1).
The human dermal fibroblasts were cultured within growth medium enriched with Fetal Calf Serum (FCS) and incubated for 3 days at 37° C. Then the growth medium was exchanged for a standard medium containing FCS at 1% and the Manilkara multinervis extract according to example 1 and incubated for 5 days at 37° C. Thereafter, the fibulin-5 synthesis was measured by immunocytochemistry (ICC) technique. The results were expressed in percentage of staining occupation and presented for 2 assays as a mean+/−SEM (Standard Error of Mean) of 6 measurements.

Turning to `N=C(N)NN` [Aminoguanidine, aminoguanidine], the “Rate of Schiff's bases in %/control with glucose” value was 47 +/− 1** (n = 6) %/control with glucose in test [1] (0.02%), 34 +/− 1** (n = 6) %/control with glucose in test [1] (0.05%) and 27 +/− 1** (n = 6) %/control with glucose in test [1] (0.1%).
Consider `O=C1O[C@H]([C@@H](O)CO)C(O)=C1O` [Vitamin C, ascorbic acid], for which, in test [2], the “Cellular Proteins” value was 97 +/− 4% and the “Released type I Collagen” value was 138 +/− 14** %.
With “TGF-β1: positive reference TGF-β1 (Transforming Growth Factor-β1)”, the “stimulation of tropoelastin synthesis (mean)” value in test [3] was 82%. Moreover, the “% of staining occupation Assay 1 (fibulin-5)” value in test [4] (Assay 1, control 15.57 +/− 4.38) is on record as 79.99%. Moreover, the “% of staining occupation Assay 2 (fibulin-5)” value in test [4] (Assay 2, control 2.65 +/− 0.36) was 18.8%.
